Measurements reported in ChEMBL document CHEMBL3407491, “Synthesis, characterization and in vitro photodynamic antimicrobial activity of basic amino acid-porphyrin conjugates” (Eur J Med Chem, 2015).
In brackets after ≈: the same amount, converted by molar mass. Activity calls are given as the source filed them. No cut-off for these calls is given here.

Tests used:
Escherichia coli [1] = experiment: Bactericidal activity against Escherichia coli ATCC 25922 incubated in dark for 30 mins followed by exposure to light fluences at 650 nm and 6 J/cm2 and then incubated overnight followed by further incubation on LB agar plates for another 24 hrs; assay type: functional; details: ATCC 25922, light or radiation study
Pseudomonas aeruginosa [2] = experiment: Antibacterial activity against Pseudomonas aeruginosa ATCC 27853 incubated in dark for 30 mins followed by exposure to light fluences at 650 nm and 6 J/cm2 and then incubated overnight measured after 24 hrs; assay type: functional; details: ATCC 27853, light or radiation study
Staphylococcus aureus [3] = experiment: Antibacterial activity against methicillin-resistant Staphylococcus aureus incubated in dark for 30 mins followed by exposure to light fluences at 650 nm and 6 J/cm2 and then incubated overnight measured after 24 hrs; assay type: functional; details: light or radiation study
Escherichia coli [4] = experiment: Antibacterial activity against Escherichia coli ATCC 25922 incubated in dark for 30 mins measured after 24 hrs; assay type: functional
[5] = Octanol water partition coefficient, log P of the compound by reverse-phase thin-layer chromatography; assay type: physicochemical
Pseudomonas aeruginosa [6] = experiment: Bactericidal activity against Pseudomonas aeruginosa ATCC 27853 incubated in dark for 30 mins followed by exposure to light fluences at 650 nm and 6 J/cm2 and then incubated overnight followed by further incubation on LB agar plates for another 24 hrs; assay type: functional; details: ATCC 27853, light or radiation study
[7] = Photostability at 2 x 10^-5 mol/L exposed to 4.2 mW/cm2 light energy density assessed as change in absorption spectra after 30 mins post irradiation; assay type: physicochemical; details: 0.5 h, 20 µM
Escherichia coli [8] = experiment: Antibacterial activity against Escherichia coli ATCC 25922 incubated in dark for 30 mins and grown for 24 hrs followed by further incubation on LB agar plates for another 24 hrs; assay type: functional
Staphylococcus aureus [9] = experiment: Bactericidal activity against methicillin-resistant Staphylococcus aureus incubated in dark for 30 mins followed by exposure to light fluences at 650 nm and 6 J/cm2 and then incubated overnight followed by further incubation on LB agar plates for another 24 hrs; assay type: functional; details: light or radiation study
Pseudomonas aeruginosa [10] = experiment: Antibacterial activity against Pseudomonas aeruginosa ATCC 27853 incubated in dark for 30 mins and grown for 24 hrs followed by further incubation on LB agar plates for another 24 hrs; assay type: functional
[11] = Singlet oxygen generation of the compound exposed to 4.2 mW/cm2 light energy density assessed as singlet oxygen quantum yield measured at 410 nm in 10 seconds intervals of irradiation at 0.2 uM by DPBF scavenger based assay
Escherichia coli [12] = experiment: Antibacterial activity against Escherichia coli ATCC 25922 incubated in dark for 30 mins followed by exposure to light fluences at 650 nm and 6 J/cm2 and then incubated overnight measured after 24 hrs; assay type: functional; details: ATCC 25922, light or radiation study
Staphylococcus aureus [13] = experiment: Antibacterial activity against methicillin-resistant Staphylococcus aureus incubated in dark for 30 mins and grown for 24 hrs followed by further incubation on LB agar plates for another 24 hrs; assay type: functional
Pseudomonas aeruginosa [14] = experiment: Antibacterial activity against Pseudomonas aeruginosa ATCC 27853 incubated in dark for 30 mins measured after 24 hrs; assay type: functional
Staphylococcus aureus [15] = experiment: Antibacterial activity against methicillin-resistant Staphylococcus aureus incubated in dark for 30 mins measured after 24 hrs; assay type: functional
Escherichia coli [16] = experiment: Antibacterial activity against Escherichia coli ATCC 25922 at 3.91 uM to 62.50 uM incubated in dark for 30 mins followed by exposure to light fluences at 650 nm and 6 J/cm2 and then incubated overnight measured after 24 hrs; assay type: functional, organism-based
Pseudomonas aeruginosa [17] = experiment: Antibacterial activity against Pseudomonas aeruginosa ATCC 27853 at 3.91 uM to 62.50 uM incubated in dark for 30 mins followed by exposure to light fluences at 650 nm and 6 J/cm2 and then incubated overnight measured after 24 hrs; assay type: functional, organism-based
Pseudomonas aeruginosa [18] = experiment: Antibacterial activity against Pseudomonas aeruginosa ATCC 27853 at 0.49 uM to 7.8 uM incubated in dark for 30 mins followed by exposure to light fluences at 650 nm and 6 J/cm2 and then incubated overnight measured after 24 hrs; assay type: functional, organism-based
Staphylococcus aureus [19] = experiment: Antibacterial activity against methicillin-resistant Staphylococcus aureus at 0.49 uM to 7.8 uM incubated in dark for 30 mins followed by exposure to light fluences at 650 nm and 6 J/cm2 and then incubated overnight measured after 24 hrs; assay type: functional, organism-based
Escherichia coli [20] = experiment: Antibacterial activity against Escherichia coli ATCC 25922 at 0.49 uM to 7.8 uM incubated in dark for 30 mins followed by exposure to light fluences at 650 nm and 6 J/cm2 and then incubated overnight measured after 24 hrs; assay type: functional, organism-based

NCCCC[C@H](N)C(=O)Nc1ccc(-c2c3nc(c(-c4ccc(N)cc4)c4ccc([nH]4)c(-c4ccc(N)cc4)c4nc(c(-c5ccc(N)cc5)c5ccc2[nH]5)C=C4)C=C3)cc1
MBC (Escherichia coli [1]): 500 µM (≈ 401 µg/mL)
MIC (Pseudomonas aeruginosa [2]): 500 µM (≈ 401 µg/mL)
MIC (Staphylococcus aureus [3]): 250 µM (≈ 201 µg/mL)
MIC (Escherichia coli [4]): 250 µM (≈ 201 µg/mL)
logP [5]: 1.4
MBC (Pseudomonas aeruginosa [6]): > 500 µM
Activity [7]: < 20%
MBC (Escherichia coli [8]): 500 µM (≈ 401 µg/mL)
MBC (Staphylococcus aureus [9]): 500 µM (≈ 401 µg/mL)
MBC (Pseudomonas aeruginosa [10]): > 500 µM
Activity [11]: 0.17
MIC (Escherichia coli [12]): 250 µM (≈ 201 µg/mL)
MBC (Staphylococcus aureus [13]): > 500 µM
MIC (Pseudomonas aeruginosa [14]): 250 µM (≈ 201 µg/mL)
MIC (Staphylococcus aureus [15]): 250 µM (≈ 201 µg/mL)

NCCCC[C@H](N)C(=O)Nc1ccc(-c2c3nc(c(-c4ccc(N)cc4)c4ccc([nH]4)c(-c4ccccc4)c4nc(c(-c5ccccc5)c5ccc2[nH]5)C=C4)C=C3)cc1
MBC (Escherichia coli [1]): 125 µM (≈ 96.6 µg/mL)
MIC (Pseudomonas aeruginosa [2]): 62.5 µM (≈ 48.3 µg/mL)
MIC (Staphylococcus aureus [3]): 62.5 µM (≈ 48.3 µg/mL)
MIC (Escherichia coli [4]): 62.5 µM (≈ 48.3 µg/mL)
logP [5]: 1.47
MBC (Pseudomonas aeruginosa [6]): 125 µM (≈ 96.6 µg/mL)
Activity [7]: < 20%
MBC (Escherichia coli [8]): 125 µM (≈ 96.6 µg/mL)
MBC (Staphylococcus aureus [9]): 125 µM (≈ 96.6 µg/mL)
MBC (Pseudomonas aeruginosa [10]): 250 µM (≈ 193 µg/mL)
Activity [11]: 0.24
MIC (Escherichia coli [12]): 62.5 µM (≈ 48.3 µg/mL)
MBC (Staphylococcus aureus [13]): 250 µM (≈ 193 µg/mL)
MIC (Pseudomonas aeruginosa [14]): 125 µM (≈ 96.6 µg/mL)
MIC (Staphylococcus aureus [15]): 125 µM (≈ 96.6 µg/mL)

N=C(N)NCCC[C@H](N)C(=O)Nc1ccc(-c2c3nc(c(-c4ccccc4)c4ccc([nH]4)c(-c4ccccc4)c4nc(c(-c5ccccc5)c5ccc2[nH]5)C=C4)C=C3)cc1
Activity (Escherichia coli [16]): inactive
MBC (Escherichia coli [1]): 125 µM (≈ 98.2 µg/mL)
MIC (Pseudomonas aeruginosa [2]): 62.5 µM (≈ 49.1 µg/mL)
MIC (Staphylococcus aureus [3]): 62.5 µM (≈ 49.1 µg/mL)
Activity (Pseudomonas aeruginosa [17]): inactive
MIC (Escherichia coli [4]): 62.5 µM (≈ 49.1 µg/mL)
logP [5]: 1.45
MBC (Pseudomonas aeruginosa [6]): 125 µM (≈ 98.2 µg/mL)
Activity [7]: < 20%
Activity (Pseudomonas aeruginosa [18]): inactive
MBC (Escherichia coli [8]): 125 µM (≈ 98.2 µg/mL)
MBC (Staphylococcus aureus [9]): 125 µM (≈ 98.2 µg/mL)
MBC (Pseudomonas aeruginosa [10]): 250 µM (≈ 196 µg/mL)
Activity [11]: 0.71
MIC (Escherichia coli [12]): 62.5 µM (≈ 49.1 µg/mL)
Activity (Staphylococcus aureus [19]): inactive
MBC (Staphylococcus aureus [13]): 250 µM (≈ 196 µg/mL)
MIC (Pseudomonas aeruginosa [14]): 125 µM (≈ 98.2 µg/mL)
MIC (Staphylococcus aureus [15]): 125 µM (≈ 98.2 µg/mL)
Activity (Escherichia coli [20]): inactive

N[C@@H](Cc1c[nH]cn1)C(=O)Nc1ccc(-c2c3nc(c(-c4ccccc4)c4ccc([nH]4)c(-c4ccccc4)c4nc(c(-c5ccccc5)c5ccc2[nH]5)C=C4)C=C3)cc1
Activity (Escherichia coli [16]): inactive
MBC (Escherichia coli [1]): 125 µM (≈ 95.9 µg/mL)
MIC (Pseudomonas aeruginosa [2]): 62.5 µM (≈ 47.9 µg/mL)
MIC (Staphylococcus aureus [3]): 125 µM (≈ 95.9 µg/mL)
Activity (Pseudomonas aeruginosa [17]): inactive
MIC (Escherichia coli [4]): 125 µM (≈ 95.9 µg/mL)
logP [5]: 1.6
MBC (Pseudomonas aeruginosa [6]): 125 µM (≈ 95.9 µg/mL)
Activity [7]: < 20%
Activity (Pseudomonas aeruginosa [18]): inactive
MBC (Escherichia coli [8]): 250 µM (≈ 192 µg/mL)
MBC (Staphylococcus aureus [9]): 250 µM (≈ 192 µg/mL)
MBC (Pseudomonas aeruginosa [10]): 250 µM (≈ 192 µg/mL)
Activity [11]: 0.56
MIC (Escherichia coli [12]): 62.5 µM (≈ 47.9 µg/mL)
Activity (Staphylococcus aureus [19]): inactive
MBC (Staphylococcus aureus [13]): 500 µM (≈ 383 µg/mL)
MIC (Pseudomonas aeruginosa [14]): 125 µM (≈ 95.9 µg/mL)
MIC (Staphylococcus aureus [15]): 125 µM (≈ 95.9 µg/mL)
Activity (Escherichia coli [20]): inactive

C1=Cc2nc1c(-c1ccccc1)c1ccc([nH]1)c(-c1ccccc1)c1nc(c(-c3ccccc3)c3ccc([nH]3)c2-c2ccccc2)C=C1
Activity [11]: 0.64

Nc1ccc(-c2c3nc(c(-c4ccc(N)cc4)c4ccc([nH]4)c(-c4ccccc4)c4nc(c(-c5ccccc5)c5ccc2[nH]5)C=C4)C=C3)cc1
Activity (Escherichia coli [16]): inactive
MBC (Escherichia coli [1]): 125 µM (≈ 80.6 µg/mL)
MIC (Pseudomonas aeruginosa [2]): 62.5 µM (≈ 40.3 µg/mL)
MIC (Staphylococcus aureus [3]): 125 µM (≈ 80.6 µg/mL)
Activity (Pseudomonas aeruginosa [17]): inactive
MIC (Escherichia coli [4]): 125 µM (≈ 80.6 µg/mL)
MBC (Pseudomonas aeruginosa [6]): 125 µM (≈ 80.6 µg/mL)
Activity [7]: < 20%
Activity (Pseudomonas aeruginosa [18]): inactive
MBC (Escherichia coli [8]): 250 µM (≈ 161 µg/mL)
MBC (Staphylococcus aureus [9]): 250 µM (≈ 161 µg/mL)
MBC (Pseudomonas aeruginosa [10]): 250 µM (≈ 161 µg/mL)
MIC (Escherichia coli [12]): 62.5 µM (≈ 40.3 µg/mL)
Activity (Staphylococcus aureus [19]): inactive
MBC (Staphylococcus aureus [13]): 500 µM (≈ 322 µg/mL)
MIC (Pseudomonas aeruginosa [14]): 125 µM (≈ 80.6 µg/mL)
MIC (Staphylococcus aureus [15]): 125 µM (≈ 80.6 µg/mL)
Activity (Escherichia coli [20]): inactive
